Measured values taken from patent US9133219B2, “Bicyclic antibiotics” (Basilea Pharmaceutica AG, priority 2009, dated 2015).
In brackets after ≈: the same amount, converted by molar mass. Like-named read-outs stand apart in the source and are kept apart here.

Legend:
Assay type in all cases: cell-based
[1] = system: Staphylococcus aureus and/or Staphylococcus epidermidis; experiment: MIC summary statement, staphylococci; settings: generally, for Staphylococcus aureus and/or Staphylococcus epidermidis
Description: (§1) Anti-Microbial Activity Assay.
(§2) The antibacterial activity of compounds is determined by the minimal inhibitory concentration (MIC) method. MICs for all bacteria except pneumococci and Haemophilus influenzae are obtained by broth microdilution with cation-adjusted Mueller-Hinton broth (CAMHB; BBL), according to CLSI guidelines (National Committee for Clinical Laboratory Standards. 2003. Methods for dilution antimicrobial susceptibility tests for bacteria that grow aerobically, 5th ed.; approved standard M7-A6. National Committee for Clinical Laboratory Standards, Wayne, Pa.), with the following modifications: (i) for pneumococci CAMHB is supplemented with 5% (^v/v) horse serum; (ii) for Haemophilus influenzae CAMHB is supplemented with 5% (^v/v) Fildes enrichment (BBL) (Pankuch, G. A., Hoellman, D. B., Lin, G., Bajaksouzian, S., Jacobs, M. R., and Appelbaum, P. C. 1998. Activity of HMR 3647 compared to those of five agents against Haemophilus influenzae and Moraxella catarrhalis by MIC determination and time-kill assay. Antimicrob. Agents Chemother. 42:3032-3034). Microtiter plates are incubated at 35° C. in ambient air for 20 to 24 h, then inspected using an illuminated microtiter plate reader fitted with a magnifying mirror (MIC 2000; Cooke Laboratory Products, Alexandria, Va.). Compounds of the present invention are tested against several bacteria strains comprising some Acinetobacter baumannii, Enterococcus faecalis, Enterococcus faecitan, Escherichia coli, Haemophilus influenzae, Klebsiella pneumoniae, Pseudomonas aeruginosa, Staphylococcus aureus, Staphylococcus epidermidis and Streptococcus pneumoniae.

[2] = system: Staphylococcus epidermidis; experiment: Anti-microbial activity assay, MIC by broth microdilution; settings: strain ATCC14990; for MIC: Staphylococcus epidermidis
Description: as §1, §2

[3] = system: Escherichia coli; experiment: as above; settings: for MIC: Escherichia coli
Description: as §1, §2

[4] = system: Staphylococcus aureus; experiment: as above; settings: for MIC: Staphylococcus aureus
Description: as §1, §2

[5] = system: Streptococcus pneumoniae; experiment: Anti-microbial activity assay, MIC by broth microdilution (CAMHB with 5% horse serum); settings: for MIC: Streptococcus pneumoniae
Description: as §1, §2

[6] = strain UB1005, read-out: MIC Escherichia coli UB1005
[7] = strain ATCC29213, read-out: MIC Staphylococcus aureus ATCC29213
[8] = strain ATCC49619, CAMHB with 5% horse serum, read-out: MIC Streptococcus pneumoniae ATCC49619
[9] = strain ATCC49619, CAMHB with 5% horse serum
[10] = E. coli UB1005, comparison of C4 and C3 position of the methoxyquinoline, same side chain, read-out: MIC
[11] = S. aureus ATCC29213, comparison of C4 and C3 position of the methoxyquinoline, same side chain, read-out: MIC
[12] = S. pneumoniae ATCC49619, comparison of C4 and C3 position of the methoxyquinoline, same side chain, read-out: MIC

| Structure (SMILES) | MIC [2] [µg/mL] | MIC [3, 6] [µg/mL] | MIC [4, 7] [µg/mL] | MIC [5, 8] [µg/mL] | further results |
| --- | --- | --- | --- | --- | --- |
| COc1cnc2ccc(OCCN3CCC(NC(=O)c4cc5c(cc4Cl)SCC(=O)N5)CC3)nc2c1 [Example 19, 7-chloro-3-oxo-3,4-dihydro-2H-benzo[1,4]thiazine-6-carboxylic acid {1-[2-(7-methoxy-[1,5]naphthyridin-2-yloxy)-ethyl]-piperidin-4-yl}-amide] | ≤ 2 | 4 (≈ 7.58 µM) | ≤ 2 | 8 (≈ 15.2 µM) | MIC [1]: ≤ 2 µg/mL |
| COc1ccc2ncc(OC(CN3CCC(NC(=O)c4ccc5c(c4)NC(=O)CS5)CC3)C(F)(F)F)nc2c1 (centres unmarked) [Example 14, 3-oxo-3,4-dihydro-2H-benzo[1,4]thiazine-6-carboxylic acid {1-[3,3,3-trifluoro-2-(7-methoxy-quinoxalin-2-yloxy)-propyl]-piperidin-4-yl}-amide] | 8 (≈ 14.2 µM) | > 32 | ≤ 2 | 8 (≈ 14.2 µM) | MIC [1]: ≤ 2 µg/mL |
| COc1ccc2ncc(SCCN3CCC(NCc4ccc5c(c4)NC(=O)CO5)CC3)nc2c1 [Example 40] |  |  |  |  | MIC Staphylococcus epidermidis ATCC14990 [2]: ≦2 mg/L; MIC Escherichia coli UB1005 ([3]; strain UB1005): ≦2 mg/L; MIC Staphylococcus aureus ATCC29213 ([4]; strain ATCC29213): ≦2 mg/L; MIC Streptococcus pneumoniae ATCC49619 [5, 9]: ≦2 mg/L |
| COc1ccc2ncc(C(=O)OC[C@H]3CC[C@H](NC(=O)c4ccc5c(c4)NC(=O)CS5)CC3)cc2c1 [Example 28, 6-methoxy-quinoline-3-carboxylic acid trans-4-[(3-oxo-3,4-dihydro-2H-benzo[1,4]thiazine-6-carbonyl)-amino]-cyclohexylmethyl ester] | ≤ 2 | > 32 | ≤ 2 | > 32 | MIC [1]: ≤ 2 µg/mL |
| COc1ccc2ncc(OC[C@H]3CC[C@H](NCc4ccc5c(c4)OCCO5)CC3)cc2c1 [reference compound] |  |  |  |  | MIC [3, 10]: > 32 µg/mL; MIC [4, 11]: > 32 µg/mL; MIC [5, 12]: 32 µg/mL (≈ 73.6 µM) |
| COc1ccc2ncc(OCC[C@H]3CC[C@H](NC(=O)c4ccc5c(c4)NC(=O)CS5)CC3)nc2c1 [Example 4, 3-oxo-3,4-dihydro-2H-benzo[1,4]thiazine-6-carboxylic acid {trans-4-[2-(7-methoxy-quinoxalin-2-yloxy)-ethyl]-cyclohexyl}-amide] | ≤ 2 | > 32 | ≤ 2 | > 32 | MIC [1]: ≤ 2 µg/mL |
| O=C1CSc2ccc(C(=O)NC3CCN(CCOc4cnc5ccc([N+](=O)[O-])cc5n4)CC3)cc2N1 [Example 13, 3-oxo-3,4-dihydro-2H-benzo[1,4]thiazine-6-carboxylic acid {1-[2-(7-nitro-quinoxalin-2-yloxy)-ethyl]-piperidin-4-yl}-amide] | > 32 | > 32 | 4 (≈ 7.87 µM) | > 32 |  |
| CCC(Oc1cnc2ccc(OC)cc2n1)N1CCCC(NCc2ccc3c(c2)NC(=O)CS3)C1 (centres unmarked) [Example 11, 6-({1-[1-(7-methoxy-quinoxalin-2-yloxy)-propyl]-piperidin-3-ylamino}-methyl)-4H-benzo[1,4]thiazin-3-one] | 4 (≈ 8.1 µM) | 16 (≈ 32.4 µM) | 4 (≈ 8.1 µM) | 4 (≈ 8.1 µM) |  |
| COc1ccc2ncc(OCCN3CCC(CNC(=O)c4cc(-c5cccs5)on4)C3)nc2c1 (centres unmarked) [Example 26, 5-thiophen-2-yl-isoxazole-3-carboxylic acid {1-[2-(7-methoxy-quinoxalin-2-yloxy)-ethyl]-pyrrolidin-3-ylmethyl}-amide] | 16 (≈ 33.4 µM) | > 32 | 4 (≈ 8.34 µM) | 8 (≈ 16.7 µM) |  |
| COc1ccc2ncc(OCCN3CCC(N(C)Cc4ccc5c(c4)NC(=O)CS5)CC3)nc2c1 [Example 25, 6-[({1-[2-(7-methoxy-quinoxalin-2-yloxy)-ethyl]-piperidin-4-yl}-methyl-amino)-methyl]-4H-benzo[1,4]thiazin-3-one] | 16 (≈ 32.4 µM) | 8 (≈ 16.2 µM) | 8 (≈ 16.2 µM) | 16 (≈ 32.4 µM) |  |
| COc1ccc2ncc(OC[C@H]3CC[C@H](NCc4ccc5c(c4)NC(=O)CO5)CC3)cc2c1 [reference compound] |  |  |  |  | MIC [3, 10]: > 32 µg/mL; MIC [4, 11]: > 32 µg/mL; MIC [5, 12]: 32 µg/mL (≈ 71.5 µM) |
| COc1ccc2nccc(OC[C@H]3CC[C@H](NCc4ccc5c(c4)NC(=O)CO5)CC3)c2c1 [reference compound] |  |  |  |  | MIC [3, 10]: 1 µg/mL (≈ 2.23 µM); MIC [4, 11]: 1 µg/mL (≈ 2.23 µM); MIC [5, 12]: 2 µg/mL (≈ 4.47 µM) |
| CCN(Cc1ccc2c(c1)OCCO2)[C@H]1CC[C@H](COC(=O)c2cnc3ccc(OC)cc3c2)CC1 [Example 34, 6-methoxy-quinoline-3-carboxylic acid trans-4-[(2,3-dihydro-benzo[1,4]dioxin-6-ylmethyl)-ethyl-amino]-cyclohexylmethyl ester] | > 32 | > 32 | 8 (≈ 16.3 µM) | > 32 |  |
| COc1ccc2ncc(OCCCN3CCC(CNC(=O)c4cc5c(cc4Cl)SCCN5)C3)nc2c1 (centres unmarked) [Example 27, 7-chloro-3,4-dihydro-2H-benzo[1,4]thiazine-6-carboxylic acid {1-[3-(7-methoxy-quinoxalin-2-yloxy)-propyl]-pyrrolidin-3-ylmethyl}-amide] | 32 (≈ 60.6 µM) | 16 (≈ 30.3 µM) | 8 (≈ 15.1 µM) | 32 (≈ 60.6 µM) |  |
| COc1ccc2ncc(OCCN3CCC(N(C)Cc4ccc5c(c4)OCCO5)CC3)nc2c1 [Example 10, (2,3-dihydro-benzo[1,4]dioxin-6-ylmethyl)-{1-[2-(7-methoxy-quinoxalin-2-yloxy)-ethyl]-piperidin-4-yl}-methyl-amine] | 8 (≈ 17.2 µM) | > 32 | 4 (≈ 8.61 µM) | 8 (≈ 17.2 µM) |  |
| COc1ccc2ncc(OCCN3CCC(CNC(=O)c4cc5c(cc4Cl)SCC(=O)N5)CC3)nc2c1 [Example 24, 7-chloro-3-oxo-3,4-dihydro-2H-benzo[1,4]thiazine-6-carboxylic acid {1-[2-(7-methoxy-quinoxalin-2-yloxy)-ethyl]-piperidin-4-ylmethyl}-amide] | 8 (≈ 14.8 µM) | 4 (≈ 7.38 µM) | 8 (≈ 14.8 µM) | 16 (≈ 29.5 µM) |  |
| COc1ccc2nccc(OC[C@H]3CC[C@H](NCc4ccc5c(c4)OCCO5)CC3)c2c1 [reference compound] |  |  |  |  | MIC [3, 10]: 16 µg/mL (≈ 36.8 µM); MIC [4, 11]: 0.5 µg/mL (≈ 1.15 µM); MIC [5, 12]: 0.5 µg/mL (≈ 1.15 µM) |
| COc1ccc2ncc(OCCCN3CCC(NC(=O)c4ccc5c(c4)NC(=O)CS5)C3)nc2c1 (centres unmarked) [Example 23] |  |  |  |  | MIC Staphylococcus epidermidis ATCC14990 [2]: 4 µg/mL (≈ 8.1 µM); MIC Escherichia coli UB1005 ([3]; strain UB1005): 16 µg/mL (≈ 32.4 µM); MIC Staphylococcus aureus ATCC29213 ([4]; strain ATCC29213): 4 µg/mL (≈ 8.1 µM); MIC Streptococcus pneumoniae ATCC49619 [5, 9]: 16 µg/mL (≈ 32.4 µM) |
| COc1ccc2ncc(C(=O)OC[C@H]3CC[C@H](N(C)Cc4ccc5c(c4)OCCO5)CC3)cc2c1 [Example 32, 6-methoxy-quinoline-3-carboxylic acid trans-4-[(2,3-dihydro-benzo[1,4]dioxin-6-ylmethyl)-methyl-amino]-cyclohexylmethyl ester] | 16 (≈ 33.6 µM) | > 32 | 8 (≈ 16.8 µM) | 32 (≈ 67.1 µM) |  |
| COc1ccc2ncc(C(=O)OC[C@H]3CC[C@H](NCc4ccc5c(c4)OCCO5)CC3)cc2c1 [Example 33, 6-methoxy-quinoline-3-carboxylic acid trans-4-[(2,3-dihydro-benzo[1,4]dioxin-6-ylmethyl)-amino]-cyclohexylmethyl ester] | 8 (≈ 17.3 µM) | > 32 | 4 (≈ 8.65 µM) | 8 (≈ 17.3 µM) |  |
| COc1ccc2ncc(OCCN3CCC(NC(=O)c4ccc5c(c4)NC(=O)CS5)CC3)nc2c1 [Example 21, 3-oxo-3,4-dihydro-2H-benzo[1,4]thiazine-6-carboxylic acid {1-[2-(7-methoxy-quinoxalin-2-yloxy)-ethyl]-piperidin-4-yl}-amide] |  |  |  |  | MIC Staphylococcus epidermidis ATCC14990 [2]: 16 µg/mL (≈ 32.4 µM); MIC Escherichia coli UB1005 ([3]; strain UB1005): ≧32 mg/L; MIC Staphylococcus aureus ATCC29213 ([4]; strain ATCC29213): 8 µg/mL (≈ 16.2 µM); MIC Streptococcus pneumoniae ATCC49619 [5, 9]: >32 µg/mL |
| COc1ccc2ncc(OCCN3CC(NC(=O)c4ccc5c(c4)NC(=O)CS5)C3)nc2c1 [Example 22, 3-oxo-3,4-dihydro-2H-benzo[1,4]thiazine-6-carboxylic acid {1-[2-(7-methoxy-quinoxalin-2-yloxy)-ethyl]-azetidin-3-yl}-amide] | 4 (≈ 8.59 µM) | 16 (≈ 34.4 µM) | 4 (≈ 8.59 µM) | 32 (≈ 68.7 µM) |  |
| COc1cccc2ncc(OCCN3CCC(NC(=O)c4ccc5c(c4)NC(=O)CS5)CC3)nc12 [Example 12, 3-oxo-3,4-dihydro-2H-benzo[1,4]thiazine-6-carboxylic acid {1-[2-(8-methoxy-quinoxalin-2-yloxy)-ethyl]-piperidin-4-yl}-amide] | 4 (≈ 8.1 µM) | ≥ 32 | 4 (≈ 8.1 µM) | 16 (≈ 32.4 µM) |  |
